Results reported in patent publication US20100267561A1, “HERBICIDAL PYRIDAZINONE DERIVATIVES” (priority 2007, published 2010).

Key:
Format in all cases: in vivo
[1] = tested on: cocklebur (Xanthium strumarium); assay: Test B pre-/postemergence plant response
In short: (§1)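 Seeds were sown and sprayed preemergence, while plants at 2 to 18 cm (1- to 4-leaf stage) got postemergence sprays. Compounds were formulated in a non-phytotoxic solvent mixture with surfactant. After 13 to 15 days in a greenhouse, injury was rated visually against untreated controls, 0 (no effect) to 100 (complete control).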

[2] = tested on: lambsquarters (Chenopodium album); assay: Test B pre-/postemergence plant response
In short: as §1

[3] = tested on: velvetleaf (Abutilon theophrasti); assay: Test B pre-/postemergence plant response
In short: as §1

[4] = tested on: bermudagrass (Cynodon dactylon); assay: Test B pre-/postemergence plant response
In short: as §1

[5] = tested on: large crabgrass (Digitaria sanguinalis); assay: Test B pre-/postemergence plant response
In short: as §1

[6] = tested on: soybean (Glycine max); assay: Test B pre-/postemergence plant response
In short: as §1

[7] = tested on: goosegrass (Eleusine indica); assay: Test B pre-/postemergence plant response
In short: as §1

[8] = tested on: common ragweed (Ambrosia elation); assay: Test B pre-/postemergence plant response
In short: as §1

[9] = tested on: Italian ryegrass (Lolium multiflorum); assay: Test B pre-/postemergence plant response
In short: as §1

[10] = tested on: Russian thistle (Salsola iberica); assay: Test B pre-/postemergence plant response; settings: Preemergence; for Russian Thistle plant response rating: scale 0 to 100
In short: as §1

[11] = tested on: umbrella sedge (Cyperus difformis); assay: Test B flooded paddy test plant response
In short: (§2)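 Compounds were added directly to paddy water over 2-leaf-stage plants in pots flooded 3 cm above soil, water depth maintained. Visual injury scored against controls after 13 to 15 days in greenhouse, 0 (none) to 100 (complete control); dash indicates no result.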

[12] = tested on: rice (Oryza sativa); assay: Test B flooded paddy test plant response
In short: as §2

[13] = tested on: ducksalad (Heteranthera limosa); assay: Test B flooded paddy test plant response
In short: as §2

[14] = tested on: barnyardgrass (Echinochloa crus-galli); assay: Test B flooded paddy test plant response
In short: as §2

[15] = 8 g ai/ha, postemergence, 0-100 scale
[16] = Postemergence, 16 g ai/ha, scale 0 to 100
[17] = Postemergence, 31 g ai/ha, scale 0 to 100
[18] = Postemergence, 62 g ai/ha, scale 0 to 100, 0 no effect, 100 complete control
[19] = Preemergence, 16 g ai/ha, scale 0 to 100 (0 no effect, 100 complete control)
[20] = Preemergence, 31 g ai/ha, scale 0 to 100 (0 no effect, 100 complete control)
[21] = Preemergence, 62 g ai/ha, 0 to 100 scale, 0 no effect, 100 complete control
[22] = Preemergence, 8 g ai/ha, scale 0 to 100
[23] = 16 g ai/ha, postemergence, 0-100 scale
[24] = Preemergence, 16 g ai/ha, scale 0 to 100
[25] = Preemergence, 8 g ai/ha, scale 0 to 100 (0 no effect, 100 complete control)
[26] = 31 g ai/ha, scale 0 to 100 (0 no effect, 100 complete control)
[27] = 62 g ai/ha, 0 to 100 scale, 0 no effect, 100 complete control
[28] = Flood (flooded paddy test), 62 g ai/ha, scale 0 to 100, 0 no effect, 100 complete control
[29] = Flood (flooded paddy test), 125 g ai/ha, scale 0 to 100, 0 no effect, 100 complete control
[30] = Flood (flooded paddy test), 250 g ai/ha, scale 0 to 100, 0 no effect, 100 complete control
[31] = Flood, 31 g ai/ha, scale 0 to 100

CCCc1cc(-c2ccc(C(F)(F)F)cc2)nn1-c1c(O)cnn(C)c1=O [Compound 72]
80: Plant response rating, Bermudagrass [4, 18] | Plant response rating, Crabgrass, Large [5, 20] | Ryegrass, Italian plant response rating [9, 15]
20: Plant response rating, Barnyardgrass [14, 28]
35: Plant response rating, Goosegrass [7, 17] | Plant response rating, Goosegrass [7, 18]
45: Plant response rating, Rice [12, 29]
10: Plant response rating, Ragweed [8, 21] | Plant response rating, Rice [12, 31]
60: Plant response rating, Bermudagrass [4, 17] | Plant response rating, Sedge, Umbrella [11, 29]
95: Crabgrass, Large plant response rating [5, 15] | Plant response rating, Goosegrass [7, 20] | Goosegrass plant response rating [7, 22] | Goosegrass plant response rating [7, 24]
15: Plant response rating, Rice [12, 28]
70: Plant response rating, Barnyardgrass [14, 30]
90: Ryegrass, Italian plant response rating [9, 24]
65: Plant response rating, Sedge, Umbrella [11, 30] | Plant response rating, Rice [12, 30]
100: Plant response rating, Bermudagrass [4, 19] | Plant response rating, Bermudagrass [4, 20] | Plant response rating, Bermudagrass [4, 21] | Plant response rating, Crabgrass, Large [5, 16] | Plant response rating, Crabgrass, Large [5, 17] | Plant response rating, Crabgrass, Large [5, 18] | Plant response rating, Crabgrass, Large [5, 21] | Plant response rating, Goosegrass [7, 21] | Ryegrass, Italian plant response rating [9, 23] | Plant response rating, Ryegrass, Italian [9, 17] | Plant response rating, Ryegrass, Italian [9, 18] | Plant response rating, Ryegrass, Italian [9, 20] | Plant response rating, Ryegrass, Italian [9, 21]
50: Plant response rating, Bermudagrass [4, 16] | Crabgrass, Large plant response rating [5, 24]
0: Cocklebur plant response rating [1, 15] | Plant response rating, Cocklebur [1, 16] | Plant response rating, Cocklebur [1, 17] | Plant response rating, Cocklebur [1, 18] | Plant response rating, Cocklebur [1, 19] | Plant response rating, Cocklebur [1, 20] | Plant response rating, Cocklebur [1, 21] | Cocklebur plant response rating [1, 22] | Lambsquarters plant response rating [2, 15] | Lambsquarters plant response rating [2, 23] | Plant response rating, Lambsquarters [2, 17] | Plant response rating, Lambsquarters [2, 18] | Lambsquarters plant response rating [2, 22] | Lambsquarters plant response rating [2, 24] | Velvetleaf plant response rating [3, 15] | Velvetleaf plant response rating [3, 23] | Plant response rating, Velvetleaf [3, 17] | Plant response rating, Velvetleaf [3, 18] | Plant response rating, Velvetleaf [3, 20] | Plant response rating, Velvetleaf [3, 21] | Velvetleaf plant response rating [3, 22] | Velvetleaf plant response rating [3, 24] | Bermudagrass plant response rating [4, 15] | Soybean plant response rating [6, 15] | Soybean plant response rating [6, 23] | Plant response rating, Soybean [6, 17] | Plant response rating, Soybean [6, 18] | Plant response rating, Soybean [6, 20] | Plant response rating, Soybean [6, 21] | Soybean plant response rating [6, 22] | Soybean plant response rating [6, 24] | Ragweed plant response rating [8, 15] | Ragweed plant response rating [8, 23] | Plant response rating, Ragweed [8, 17] | Plant response rating, Ragweed [8, 18] | Plant response rating, Ragweed [8, 20] | Ragweed plant response rating [8, 22] | Ragweed plant response rating [8, 24] | Plant response rating, Russian Thistle [10, 26] | Plant response rating, Russian Thistle [10, 27] | Russian Thistle plant response rating ([10]; 8 g ai/ha) | Russian Thistle plant response rating ([10]; 16 g ai/ha) | Plant response rating, Sedge, Umbrella [11, 28] | Plant response rating, Sedge, Umbrella [11, 31] | Plant response rating, Ducksalad [13, 28] | Plant response rating, Ducksalad [13, 29] | Plant response rating, Ducksalad [13, 31] | Plant response rating, Barnyardgrass [14, 31]
40: Plant response rating, Lambsquarters [2, 21] | Bermudagrass plant response rating [4, 25] | Plant response rating, Ducksalad [13, 30] | Plant response rating, Barnyardgrass [14, 29]
30: Plant response rating, Lambsquarters [2, 20] | Crabgrass, Large plant response rating [5, 22] | Goosegrass plant response rating [7, 15] | Goosegrass plant response rating [7, 23]
75: Ryegrass, Italian plant response rating [9, 22]

CCCc1cc(-c2ccc(Cl)cc2)nn1-c1c(O)cnn(C)c1=O [Compound 76]
75: Plant response rating, Goosegrass [7, 18] | Goosegrass plant response rating [7, 24] | Ryegrass, Italian plant response rating [9, 22] | Ryegrass, Italian plant response rating [9, 24]
95: Plant response rating, Crabgrass, Large [5, 17] | Plant response rating, Ryegrass, Italian [9, 20] | Plant response rating, Ryegrass, Italian [9, 21]
90: Plant response rating, Bermudagrass [4, 18]
98: Plant response rating, Crabgrass, Large [5, 21] | Ryegrass, Italian plant response rating [9, 23]
20: Bermudagrass plant response rating [4, 19] | Crabgrass, Large plant response rating [5, 15] | Crabgrass, Large plant response rating [5, 24] | Goosegrass plant response rating [7, 15] | Goosegrass plant response rating [7, 22]
85: Plant response rating, Bermudagrass [4, 17] | Plant response rating, Crabgrass, Large [5, 16]
65: Ryegrass, Italian plant response rating [9, 15]
100: Plant response rating, Bermudagrass [4, 20] | Plant response rating, Bermudagrass [4, 21] | Plant response rating, Crabgrass, Large [5, 18] | Plant response rating, Goosegrass [7, 21] | Plant response rating, Ryegrass, Italian [9, 17] | Plant response rating, Ryegrass, Italian [9, 18]
70: Bermudagrass plant response rating [4, 15] | Plant response rating, Goosegrass [7, 17]
80: Plant response rating, Bermudagrass [4, 16] | Plant response rating, Goosegrass [7, 20]
60: Goosegrass plant response rating [7, 23]
55: Plant response rating, Crabgrass, Large [5, 20]
0: Cocklebur plant response rating [1, 15] | Plant response rating, Cocklebur [1, 16] | Plant response rating, Cocklebur [1, 17] | Plant response rating, Cocklebur [1, 18] | Plant response rating, Cocklebur [1, 20] | Plant response rating, Cocklebur [1, 21] | Cocklebur plant response rating [1, 22] | Cocklebur plant response rating [1, 24] | Lambsquarters plant response rating [2, 15] | Lambsquarters plant response rating [2, 23] | Plant response rating, Lambsquarters [2, 17] | Plant response rating, Lambsquarters [2, 18] | Plant response rating, Lambsquarters [2, 20] | Plant response rating, Lambsquarters [2, 21] | Lambsquarters plant response rating [2, 22] | Lambsquarters plant response rating [2, 24] | Velvetleaf plant response rating [3, 15] | Velvetleaf plant response rating [3, 23] | Plant response rating, Velvetleaf [3, 17] | Plant response rating, Velvetleaf [3, 18] | Plant response rating, Velvetleaf [3, 20] | Plant response rating, Velvetleaf [3, 21] | Velvetleaf plant response rating [3, 22] | Velvetleaf plant response rating [3, 24] | Bermudagrass plant response rating [4, 25] | Crabgrass, Large plant response rating [5, 22] | Soybean plant response rating [6, 15] | Soybean plant response rating [6, 23] | Plant response rating, Soybean [6, 17] | Plant response rating, Soybean [6, 18] | Plant response rating, Soybean [6, 20] | Plant response rating, Soybean [6, 21] | Soybean plant response rating [6, 22] | Soybean plant response rating [6, 24] | Ragweed plant response rating [8, 15] | Ragweed plant response rating [8, 23] | Plant response rating, Ragweed [8, 17] | Plant response rating, Ragweed [8, 18] | Plant response rating, Ragweed [8, 20] | Plant response rating, Ragweed [8, 21] | Ragweed plant response rating [8, 22] | Ragweed plant response rating [8, 24] | Plant response rating, Russian Thistle [10, 26] | Plant response rating, Russian Thistle [10, 27] | Russian Thistle plant response rating ([10]; 8 g ai/ha) | Russian Thistle plant response rating ([10]; 16 g ai/ha) | Plant response rating, Sedge, Umbrella [11, 28] | Plant response rating, Sedge, Umbrella [11, 30] | Plant response rating, Rice [12, 28] | Plant response rating, Rice [12, 30] | Plant response rating, Ducksalad [13, 28] | Plant response rating, Ducksalad [13, 30] | Plant response rating, Barnyardgrass [14, 28] | Plant response rating, Barnyardgrass [14, 30]
